Assay results as given in patent US20040242650A1, “Extended dosing regimen” (priority 2003, published 2004).
Marks after values point to notes of the source that are not given here.

Tests used:
[1] = tested on: HT-29 colon subcutaneous flank xenografts; test: HT-29 flank xenograft model; type: in vivo, nude mice; conditions: q.d x5; for Tumor Volume Day 38: mean ± SEM; for % ILS: median, time to 1 cc vs vehicle; for % T/C Day 38: treated vs vehicle
Method: (§1) Efficacy of N-[2-[(4-hydroxyphenyl)amino]-3-pyridyl]-4-methoxybenzenesulfonamide was tested in Calu-6 NSCL, MDA-MB-468 breast and HT-29 colon carcinoma xenografts grown in nude mice. The objectives were determination of the efficacy of N-[2-[(4-hydroxyphenyl)amino]-3-pyridyl]-4-methoxybenzenesulfonamide as a single agent and in combination with cisplatin in the Calu-6 NSCL flank xenograft model; determination the efficacy of N-[2-[(4-hydroxyphenyl)amino]-3-pyridyl]-4-methoxybenzenesulfonamide as a single agent and in combination with docetaxel in the MDA-MB 468 breast flank xenograft model; determination of the efficacy of N-[2-[(4-hydroxyphenyl)amino]-3-pyridyl]-4-methoxybenzenesulfonamide as a single agent and in combination with 5-FU in the HT-29 colon flank xenograft model; and comparison the efficacy of N-[2-[(4-hydroxyphenyl)amino]-3-pyridyl]-4-methoxybenzenesulfonamide administered on 2 different schedules (q.d. vs b.i.d.) in the Calu-6 and HT-29 xenogaft model.
(§2) Following inoculation of tumor cells, tumors were passaged three times in mice before using the fragments to generate single cell suspensions. Multiple animals were used as donors. Single cell suspensions were generated by homogenizing the minced tumor tissue in RPMI 1640 media. Cell suspensions were washed three times to remove debris and other foreign materials. Viable cells were counted by trypan blue exclusion technique using a hemocytometer. Mice were injected subcutaneously with 0.5 ml of the cell suspension containing 1×10^6 cells.
(§3) Tumor cells derived from serially passaged tumor fragments were inoculated s.c. in female nude mice on day 0. On day 10, mice bearing established tumors were size matched at ˜236 mm^3 and placed into the following groups:
1. N-[2-[(4-hydroxyphenyl)amino]-3-pyridyl]-4-methoxybenzenesulfonamide—100, and 75 mg/kg/day (p.o., q.d., 5 days on, 5 days off ×2)
2. N-[2-[(4-hydroxyphenyl)amino]-3-pyridyl]-4-methoxybenzenesulfonamide—50 and 0 mg/kg/day (p.o., q.d. ×21 or p.o., b.i.d. ×21)
Combination Therapy—100/30, 75/30, mg/kg/day (p.o., q.d., 5 days on, 5 days off ×2/ip, qd ×1), 50/10 mg/kg/day (p.o., q.d., ×21/ip, qd ×1).

[2] = tested on: Calu-6 lung subcutaneous flank xenografts; test: Calu-6 flank xenograft model; type: in vivo, male nude mice; conditions: q.d x1; for Tumor Volume Day 38: mean ± SEM; for % ILS: median, time to 1 cc vs vehicle; for % T/C Day 38: treated vs vehicle
Method: as §1, §2
Tumor cells were inoculated s.c. into male nude mice on day 0. On day 10, mice bearing established tumors were size matched at ˜233 mm^3 and placed into the following groups:
(§4) N-[2-[(4-hydroxyphenyl)amino]-3-pyridyl]-4-methoxybenzenesulfonamide—100, and 75 mg/kg/day (p.o., q.d., 5 days on, 5 days off ×2)
N-[2-[(4-hydroxyphenyl)amino]-3-pyridyl]-4-methoxybenzenesulfonamide—50 and 0 mg/kg/day (p.o., q.d. ×21 or p.o., b.i.d. ×21)
Cisplaitn—20, 10, 8 and 0 mg/kg/day (ip, qd ×1)
Combination Therapy—100/10, 75/10, 100/8 mg/kg/day (p.o., q.d., 5 days on, 5 days off ×2/ip, qd ×1), 50/10 mg/kg/day (p.o., q.d., ×21/ ip, qd ×1)

[3] = tested on: MDA-MB-468 breast subcutaneous flank xenografts; test: MDA-MB-468 breast flank xenograft model; type: in vivo, female nude mice; conditions: q.d x1; for Tumor Volume Day 38: mean ± SEM; for % ILS: median, time to 1 cc vs vehicle; for % T/C Day 38: treated vs vehicle
Method: as §1, §2
as §3, with “Efficacy of N-[2-[(4-hydroxyphenyl)amino]-3-pyridyl]-4-methoxybenzenesulfonamide in the MDA-MB-468 Breast Flank Xenograft Model. Tumor” for “Tumor”, “˜231” for “˜236”
as §4
N-[2-[(4-hydroxyphenyl)amino]-3-pyridyl]-4-methoxybenzenesulfonamide—50 and 0 mg/kg/day (p.o., q.d. ×21)
Docetaxel—40, 33.3, 16.7 and 0 mg/kg/day (i.v., qd ×1)

SMILES: O=c1[nH]cc(F)c(=O)[nH]1 [5-FU, 5-fluorouracil, reference compound]
- Tumor Volume Day 38 ([1]; 20 mg/kg/day i.p.): 1413 ± 80 mm^3
- % ILS ([1]; 20 mg/kg/day i.p.): 25*** %
- % T/C Day 38 ([1]; 20 mg/kg/day i.p.): 59*** %
- Tumor Volume Day 38 ([1]; 30 mg/kg/day i.p.): 525 ± 35 mm^3
- % ILS ([1]; 30 mg/kg/day i.p.): 75*** %
- % T/C Day 38 ([1]; 30 mg/kg/day i.p.): 22*** %
- Tumor Volume Day 38 ([1]; 40 mg/kg/day i.p.): 973 ± 45 mm^3
- % ILS ([1]; 40 mg/kg/day i.p.): 50*** %
- % T/C Day 38 ([1]; 40 mg/kg/day i.p.): 41*** %

SMILES: N.N.[Cl][Pt][Cl] [Cisplatin, cisplatin, reference compound]
- Tumor Volume Day 38 ([2]; 8 mg/kg/day i.p.): 1649 ± 67 mm^3
- % ILS ([2]; 8 mg/kg/day i.p.): 29*** %
- % T/C Day 38 ([2]; 8 mg/kg/day i.p.): 63*** %
- Tumor Volume Day 38 ([2]; 10 mg/kg/day i.p.): 914 ± 49 mm^3
- % ILS ([2]; 10 mg/kg/day i.p.): 71*** %
- % T/C Day 38 ([2]; 10 mg/kg/day i.p.): 35*** %
- Tumor Volume Day 38 ([2]; 20 mg/kg/day i.p.): 1472 ± 75 mm^3
- % ILS ([2]; 20 mg/kg/day i.p.): 58*** %
- % T/C Day 38 ([2]; 20 mg/kg/day i.p.): 56*** %

SMILES: CC(=O)O[C@@]12CO[C@@H]1C[C@H](O)[C@@]1(C)C(=O)[C@H](O)C3=C(C)[C@@H](OC(=O)[C@H](O)[C@@H](NC(=O)OC(C)(C)C)c4ccccc4)C[C@@](O)([C@@H](OC(=O)c4ccccc4)[C@H]21)C3(C)C [Docetaxel, docetaxel, reference compound]
- Tumor Volume Day 38 ([3]; 16.7 mg/kg/day i.v.): 1909 ± 101 mm^3
- % ILS ([3]; 16.7 mg/kg/day i.v.): 26*** %
- % T/C Day 38 ([3]; 16.7 mg/kg/day i.v.): 68*** %
- Tumor Volume Day 38 ([3]; 33.3 mg/kg/day i.v.): 551 ± 31 mm^3
- % ILS ([3]; 33.3 mg/kg/day i.v.): 67*** %
- % T/C Day 38 ([3]; 33.3 mg/kg/day i.v.): 19*** %
- Tumor Volume Day 38 ([3]; 40 mg/kg/day i.v.): 1008 ± 58 mm^3
- % ILS ([3]; 40 mg/kg/day i.v.): 52*** %
- % T/C Day 38 ([3]; 40 mg/kg/day i.v.): 36*** %
